Patent US11850220B2 (Augusta University Research Institute, Inc., priority 2020, dated 2023)

Experiments:
Format in all cases: in vivo
[1] = test system: carrageenan-induced paw edema; assay: carrageenan-induced paw edema technique (anti-inflammatory); conditions: for Observed (1/property): 1/(% inhibition of edema thickness at 3 h effect); for Observed (1/property): test concentration or dose not given here; for Potency (% Inhibition relative to indomethacin at 3 h effect): test concentration or dose not given here
Excerpt: Anti-inflammatory properties of the ibuprofen-amino acid conjugate (5a-j) and ibuprofen-amino acid-4-aminophenol conjugates 7a-j were studied by the standard carrageenan-induced paw edema technique (Naumov, R. N. et al., Bioorg. Med. Chem. Lett. 2015, 25, 2314-2320; Tiwari, A. D. et al., Org. Biomol. Chem. 2014, 12, 7238-7249).

[2] = test system: acetic acid-induced abdominal writhing; assay: acetic acid-induced abdominal writhing technique (peripheral analgesic); conditions: for Potency: Relative to indomethacin; for % Inhibition/protection / Writing reflex ± SEM: in vivo; for % Inhibition/protection: test concentration or dose not given here; for Writing reflex ± SEM: test concentration or dose not given here
[3] = test system: hot plate; assay: hot plate technique (central analgesic); conditions: for Potency: Relative to indomethacin at 120 min.
[4] = % inhibition of edema thickness at 3 h effect, Table 7
[5] = anti-inflammatory property (% inhibition of edema at 3 h), Table 8

| Compound | Observed (1/property) ([1]; Table 7) | % inhibition of edema ([1]; 1 h) [%] | Mean edema thickness ([1]; 1 h) [mm] | % inhibition of edema ([1]; 2 h) [%] | Mean edema thickness ([1]; 2 h) [mm] | % inhibition of edema ([1]; 3 h) [%] | Mean edema thickness ([1]; 3 h) [mm] | % inhibition of edema ([1]; 4 h) [%] | Mean edema thickness ([1]; 4 h) [mm] | % inhibition of edema ([1]; 24 h) [%] | Mean edema thickness ([1]; 24 h) [mm] | Observed property [1, 4] [%] | Observed property [1, 5] [%] | Potency (% Inhibition relative to indomethacin at 3 h effect) [1] [%] | Potency [2] | % Inhibition/protection [2] [%] | Writing reflex ± SEM [2] | % protection ([3]; After 30 min.) | Latency period ± SEM ([3]; After 30 min.) [s] | % protection ([3]; After 60 min.) | also measured |
| --- | --- | --- | --- | --- | --- | --- | --- | --- | --- | --- | --- | --- | --- | --- | --- | --- | --- | --- | --- | --- | --- |
| CSCC[C@H](NC(=O)C(C)c1ccc(CC(C)C)cc1)C(=O)O (stereo partly drawn) [Compound 5i, (2-(4-Isobutylphenyl)propanoyl)-L-methionine] | 0.02222 | 24 | 0.93 ± 0.04 | 54 | 0.69 ± 0.05 | 45 | 0.71 ± 0.04 | 12 | 1.10 ± 0.06 | 79 | 0.04 ± 0.01 | 45 | 45 | 56 | 40 | 22.2 | 75.7 ± 1.9 | (32.2) % | 3.20 ± 0.03 | (51.1) % | Latency period ± SEM ([3]; After 60 min.): 3.35 ± 0.06 s; % protection ([3]; After 90 min.): (61.4) %; Latency period ± SEM ([3]; After 90 min.): 3.55 ± 0.07 s; % protection ([3]; After 120 min.): (13.2) %; Latency period ± SEM ([3]; After 120 min.): 2.48 ± 0.04 s; Potency [3]: 23 |
| CC(C)Cc1ccc(C(C)C(=O)N[C@H](C(=O)O)C(C)C)cc1 (stereo partly shown) [Compound 5h] | 0.01754 | 11 | 1.09 ± 0.08 | 14 | 1.30 ± 0.07 | 57 | 0.56 ± 0.05 | 49 | 0.64 ± 0.06 | 84 | 0.03 ± 0.02 | 57 | 57 | 72 | 54 | 29.6 | 68.5 ± 2.0 | (12.8) % | 2.73 ± 0.05 | (20.6) % | Latency period ± SEM ([3]; After 60 min.): 2.69 ± 0.04 s; % protection ([3]; After 90 min.): (9.5) %; Latency period ± SEM ([3]; After 90 min.): 2.41 ± 0.02 s; % protection ([3]; After 120 min.): (6.4) %; Latency period ± SEM ([3]; After 120 min.): 2.33 ± 0.02 s; Potency [3]: 11 |
| CC(C)Cc1ccc(C(C)C(=O)N[C@@H](C)C(=O)O)cc1 (stereo partly drawn) [Compound 5b, (2-(4-Isobutylphenyl)propanoyl)-L-alanine] | 0.01923 | 34 | 0.81 ± 0.04 | 37 | 0.95 ± 0.02 | 52 | 0.63 ± 0.01 | 51 | 0.61 ± 0.03 | 32 | 0.13 ± 0.03 | 52 | 52 | 65 | 80 | 43.8 | 54.7 ± 2.0 | (12.8) % | 2.73 ± 0.03 | (17.0) % | Latency period ± SEM ([3]; After 60 min.): 2.61 ± 0.12 s; % protection ([3]; After 90 min.): (20.9) %; Latency period ± SEM ([3]; After 90 min.): 2.66 ± 0.01 s; % protection ([3]; After 120 min.): (21.9) %; Latency period ± SEM ([3]; After 120 min.): 2.67 ± 0.06 s; Potency [3]: 39 |
| CC(C)Cc1ccc(C(C)C(=O)N[C@@H](CC(C)C)C(=O)O)cc1 (stereo partly shown) [Compound 5g] | 0.01724 | 5 | 1.17 ± 0.07 | 24 | 1.15 ± 0.06 | 58 | 0.55 ± 0.04 | 40 | 0.75 ± 0.05 | 42 | 0.11 ± 0.04 | 58 | 58 | 73 | 89 | 48.9 | 49.7 ± 1.2 | (27.7) % | 3.09 ± 0.04 | (28.7) % | Latency period ± SEM ([3]; After 60 min.): 2.87 ± 0.03 s; % protection ([3]; After 90 min.): (4.1) %; Latency period ± SEM ([3]; After 90 min.): 2.29 ± 0.05 s; % protection ([3]; After 120 min.): (3.7) %; Latency period ± SEM ([3]; After 120 min.): 2.27 ± 0.03 s; Potency [3]: 7 |
| CC(C)Cc1ccc(C(C)C(=O)N[C@@H](Cc2ccccc2)C(=O)O)cc1 (stereo partly drawn) [Compound 5e, (2-(4-Isobutylphenyl)propanoyl)-L-phenylalanine] | 0.01613 | 25 | 0.92 ± 0.07 | 19 | 1.22 ± 0.08 | 62 | 0.50 ± 0.04 | 30 | 0.88 ± 0.05 | 74 | 0.05 ± 0.02 | 62 | 62 | 78 | 84 | 46.0 | 52.5 ± 1.2 | (24.0) % | 3.00 ± 0.04 | (30.5) % | Latency period ± SEM ([3]; After 60 min.): 2.91 ± 0.01 s; % protection ([3]; After 90 min.): (35.5) %; Latency period ± SEM ([3]; After 90 min.): 2.98 ± 0.03 s; % protection ([3]; After 120 min.): (48.4) %; Latency period ± SEM ([3]; After 120 min.): 3.25 ± 0.02 s; Potency [3]: 86 |
